Where no end group is shown, it is not given here. [ ]: non-standard residue; d: D form. Nle = CCCC[C@H](N)C(=O)O; Nva = CCC[C@H](N)C(=O)O
Legend:
[1] = system: cultured rat pituitary cells; assay: Secretion of ACTH and β-endorphin by cultured rat pituitary cells; format: cell-based; conditions: for Stimulation of the secretion of ACTH and β-END-LI: general procedure of Example III
Description: The synthetic peptide [D-Glu^20 ]-oCRF is examined for its effects on the secretion of ACTH and β-endorphin vitro and was also in vivo. The potency of synthetic [D-Glu^20 ]-oCRF to stimulate the secretion of ACTH and β-endorphin by cultured rat pituitary cells is measured using the procedure as generally set forth in Endocrinology, 91, 562 (1972) and compared against synthetic oCRF.

[2] = In vivo testing (procedure of C. Rivier et al., Science 218, 377): duration of potency and blood pressure; conditions: for Lowering of blood pressure: administered peripherally (where stated)
[3] = system: ACTH and β-endorphin-like activities (β-END-LI); conditions: in vitro and in vivo; cited from earlier work
[4] = injected peripherally, e.g. intravenously; cited from earlier work

Molecule | Stimulation of the secretion of ACTH and β-END-LI [1] | Lowering of blood pressure [2] | other results
CC[C@H](C)[C@H](NC(=O)[C@@H](NC(=O)[C@H](CC(=O)O)NC(=O)[C@H](CC(C)C)NC(=O)[C@H](CC(C)C)NC(=O)[C@H](CC(C)C)NC(=O)[C@H](CCCNC(=N)N)NC(=O)[C@H](CC(N)=O)NC(=O)[C@H](CC(N)=O)NC(=O)[C@H](C)NC(=O)[C@H](C)NC(=O)[C@H](CCC(N)=O)NC(=O)[C@H](CCC(=O)O)NC(=O)[C@H](CCCCN)NC(=O)[C@H](CCC(=O)O)NC(=O)[C@H](CCCCN)NC(=O)[C@H](CCC(=O)O)NC(=O)[C@H](CCC(N)=O)NC(=O)[C@H](CCCCN)NC(=O)[C@H](CCCNC(=N)N)NC(=O)[C@H](C)NC(=O)[C@@H](CCC(=O)O)NC(=O)[C@@H](NC(=O)[C@H](CCSC)NC(=O)[C@H](CCCCN)NC(=O)[C@H](CCCNC(=N)N)NC(=O)[C@H](CC(C)C)NC(=O)[C@H](CC(C)C)NC(=O)[C@H](CCC(=O)O)NC(=O)[C@@H](Cc1ccccc1)NC(=O)[C@H](CO)NC(=O)[C@H](CC(C)C)NC(=O)[C@H](CC(=O)O)NC(=O)[C@@H](NC(=O)[C@H](CO)NC(=O)[C@@H](NC(=O)[C@@H]1CCCN1C(=O)[C@@H]1CCCN1C(=O)CNC(=O)[C@@H]1CCC(=O)N1)[C@@H](C)CC)[C@@H](C)CC)[C@@H](C)CC)[C@@H](C)CC)C(N)=O | stimulates the secretion of ACTH and β-END-LI | very significant lowering of blood pressure | –
CCCC[C@H](NC(=O)[C@@H](CCC(=O)O)NC(=O)[C@H](CC(C)C)NC(=O)[C@@H](NC(=O)[C@H](CCC(=O)O)NC(=O)[C@H](CCCNC(=N)N)NC(=O)[C@H](CC(C)C)NC(=O)[C@H](CC(C)C)NC(=O)[C@H](Cc1c[nH]cn1)NC(=O)[C@H](Cc1ccccc1)NC(=O)[C@@H](NC(=O)[C@H](CC(C)C)NC(=O)[C@H](CC(=O)O)NC(=O)[C@H](CC(C)C)NC(=O)[C@H](CO)NC(=O)[C@@H](NC(=O)[C@@H]1CCCN1C(=O)[C@@H]1CCCN1C(=O)[C@H](CCC(=O)O)NC(=O)[C@H](CCC(N)=O)NC(=O)[C@@H](N)CO)[C@@H](C)CC)[C@@H](C)O)C(C)C)C(=O)N[C@H](C(=O)N[C@@H](CCCCN)C(=O)N[C@@H](C)C(=O)N[C@@H](CC(=O)O)C(=O)N[C@@H](CCC(N)=O)C(=O)N[C@@H](CC(C)C)C(=O)N[C@@H](C)C(=O)N[C@@H](CCC(N)=O)C(=O)N[C@@H](CCC(N)=O)C(=O)N[C@@H](C)C(=O)N[C@H](Cc1c[nH]cn1)C(=O)N[C@@H](CO)C(=O)N[C@@H](CC(N)=O)C(=O)N[C@@H](CCCNC(=N)N)C(=O)N[C@@H](CCCCN)C(=O)N[C@@H](CC(C)C)C(=O)N[C@@H](CC(C)C)C(=O)N[C@@H](CC(=O)O)C(=O)N[C@H](C(=O)N[C@@H](C)C(N)=O)[C@@H](C)CC)[C@@H](C)O [[D-Glu^20, Nle^21, D-His^32]-oCRF] | stimulates the secretion of ACTH and β-END-LI | very significant lowering of blood pressure | –
CCCC[C@H](NC(=O)[C@@H](CCC(=O)O)NC(=O)[C@H](CC(C)C)NC(=O)[C@@H](NC(=O)[C@H](CCC(=O)O)NC(=O)[C@H](CCCNC(=N)N)NC(=O)[C@H](CC(C)C)NC(=O)[C@H](CC(C)C)NC(=O)[C@H](Cc1c[nH]cn1)NC(=O)[C@H](Cc1ccccc1)NC(=O)[C@@H](NC(=O)[C@H](CC(C)C)NC(=O)[C@H](CC(=O)O)NC(=O)[C@H](CC(C)C)NC(=O)[C@H](CO)NC(=O)[C@@H](NC(=O)[C@@H]1CCCN1C(=O)[C@@H]1CCCN1C(=O)[C@H](CCC(=O)O)NC(=O)[C@H](CCC(N)=O)NC(=O)[C@@H](N)CO)[C@@H](C)CC)[C@@H](C)O)C(C)C)C(=O)N[C@H](C(=O)N[C@@H](CCCCN)C(=O)N[C@@H](C)C(=O)N[C@@H](CC(=O)O)C(=O)N[C@@H](CCC(N)=O)C(=O)N[C@@H](CC(C)C)C(=O)N[C@@H](C)C(=O)N[C@@H](CCC(N)=O)C(=O)N[C@@H](CCC(N)=O)C(=O)N[C@@H](C)C(=O)N[C@@H](Cc1c[nH]cn1)C(=O)N[C@@H](CO)C(=O)N[C@@H](CC(N)=O)C(=O)N[C@@H](CCCNC(=N)N)C(=O)N[C@@H](CCCCN)C(=O)N[C@@H](CC(C)C)C(=O)N[C@@H](CC(C)C)C(=O)N[C@@H](CC(=O)O)C(=O)N[C@H](C(=O)N[C@@H](C)C(N)=O)[C@@H](C)CC)[C@@H](C)O [[D-Glu^20, Nle^21]-oCRF] | stimulates the secretion of ACTH and β-END-LI | very significant lowering of blood pressure | –
CC[C@H](C)[C@H](NC(=O)[C@H](CC(=O)O)NC(=O)[C@H](CC(C)C)NC(=O)[C@H](CC(C)C)NC(=O)[C@H](CCCCN)NC(=O)[C@H](CCCNC(=N)N)NC(=O)[C@H](CC(N)=O)NC(=O)[C@H](CO)NC(=O)[C@H](Cc1c[nH]cn1)NC(=O)[C@H](C)NC(=O)[C@H](CCC(N)=O)NC(=O)[C@H](CCC(N)=O)NC(=O)[C@H](C)NC(=O)[C@H](CC(C)C)NC(=O)[C@H](CCC(N)=O)NC(=O)[C@H](CC(=O)O)NC(=O)[C@H](C)NC(=O)[C@H](CCCCN)NC(=O)[C@@H](NC(=O)[C@H](CCSC)NC(=O)[C@@H](CCC(=O)O)NC(=O)[C@H](CC(C)C)NC(=O)[C@@H](NC(=O)[C@H](CCC(=O)O)NC(=O)[C@H](CCCNC(=N)N)NC(=O)[C@H](CC(C)C)NC(=O)[C@H](CC(C)C)NC(=O)[C@H](Cc1c[nH]cn1)NC(=O)[C@H](Cc1ccccc1)NC(=O)[C@@H](NC(=O)[C@H](CC(C)C)NC(=O)[C@H](CC(=O)O)NC(=O)[C@H](CC(C)C)NC(=O)[C@H](CO)NC(=O)[C@@H](NC(=O)[C@@H]1CCCN1C(=O)[C@@H]1CCCN1C(=O)[C@H](CCC(=O)O)NC(=O)[C@H](CCC(N)=O)NC(=O)[C@@H](N)CO)[C@@H](C)CC)[C@@H](C)O)C(C)C)[C@@H](C)O)C(=O)N[C@@H](C)C(N)=O [[D-Glu^20]-oCRF] | – | significant lowering of blood pressure | EC50 ([1]; cultured rat pituitary cells, read-out: Concentration at which half-maximal responses are observed (ACTH and β-endorphin secretion)): ~170 pM; Potency relative to the native hormone ([1]; in vitro, compared against synthetic oCRF): about twice as potent as the native hormone; Secretory response to maximal concentrations ([1]; maximal (1-5 nM) concentrations): at a plateau level; Duration of potency in vivo ([2]; in vivo): longer duration of potency
Bz-Ser-Leu-Asp-Leu-Thr-D-Phe-His-Leu-Leu-Arg-Glu-Val-Leu-Glu-Nle-Ala-Arg-Ala-Glu-Gln-Leu-Ala-Gln-Gln-Ala-D-His-Ser-Asn-Arg-Lys-Leu-Nle-Glu-Ile-Ile-NH2 | stimulates the secretion of ACTH and β-END-LI | very significant lowering of blood pressure | –
H-D-Pro-Pro-Ile-Ser-Leu-Asp-Leu-Thr-D-Phe-His-Leu-Leu-Arg-Glu-Val-Leu-Glu- Nle-Ala-Arg-Ala-Glu-Gln-Leu-Ala-Gln-Gln-Ala-His-Ser-Asn-Arg-Lys-CML-Nle-Ile-Ile-NH2 | stimulates the secretion of ACTH and β-END-LI | very significant lowering of blood pressure | –
H-SQEPPISLDLTFHLLREVL[dE][Nle]TK[dA]DQLAQQAHSNRKL[Nle]DIA-NH2 [[D-Glu^20, D-Ala^24, Nle^21,38]-oCRF] | stimulates the secretion of ACTH and β-END-LI | very significant lowering of blood pressure | –
H-SQEPPISLDLTFHLLRE[Nle]L[dE][Nle]AKAEQEAEQA[dH]LNRLLLEEA-NH2 [[Nle^18,21, D-Glu^20, D-His^32]-AHC] | stimulates the secretion of ACTH and β-END-LI | very significant lowering of blood pressure | –
H-SQEPPISLDLT[dF]HLLREML[dE]RAKAEQEAEQAALNRLLLEEA-NH2 [[D-Phe^12, D-Glu^20, Arg^21]-AHC] | stimulates the secretion of ACTH and β-END-LI | very significant lowering of blood pressure | –
H-SQEPPISLDLT[dF]HLLRE[Nle]LE[Nle]AK[dA]EQEAEQAALNRLLLEEA-NH2 [[D-Phe^12, Nle^18,21, D-Ala^24]-AHC] | stimulates the secretion of ACTH and β-END-LI | very significant lowering of blood pressure | –
H-SQ[dY]PPISLDLTFHLLRE[Nle]L[dE][Nva]AK[dA]EQEAEQAALNRLLLEEA-NH2 | stimulates the secretion of ACTH and β-END-LI | very significant lowering of blood pressure | –
H-Ser-Gln-Glu-Pro-Pro-Ile-Ser-Leu-Asp-Leu-Thr-D-Phe-Glu-Leu-Leu-Arg-Glu-Met-T-Glu-Ile-Ala-Lys-Ala-Glu-Gln-Glu-Ala-Glu-Gln-Ala-Ala-Leu-Asn-Arg-Lys-Tyr-Leu-Glu-Glu-Val-NH2 | stimulates the secretion of ACTH and β-END-LI | very significant lowering of blood pressure | –
H-Ser-Glu-Glu-Pro-Pro-Ile-Ser-Leu-Asp-Leu-Thr-D-Phe-Glu-Lue-Leu-Arg-Glu-Nle-Leu-Glu-Met-Glu-Orn-Ala-Glu-Lys-Glu-Ala-Glu-Gln-Ala-Ala-Leu-Asn-Arg-Leu-Leu-Leu-Glu-Glu-Ala-NH2 | stimulates the secretion of ACTH and β-END-LI | very significant lowering of blood pressure | –
H-pGlu-Glu-Pro-Pro-Ile-Ser-Leu-Asp-:-Thr-D-Phe-His-Leu-Leu-Arg-Glu-Val-Leu-Glu-Met-Ala-Arg-D-Ala-Glu-Gln-Leu-Ala-Gln-Gln-Ala-His-Ser-Asn-Arg-Lys-Leu- Met-Glu-Ile-Ile-NH2 [[pGlu^2, D-Phe^12, D-Ala^24]-rCRF(2-41)] | stimulates the secretion of ACTH and β-END-LI | very significant lowering of blood pressure | –
rCRF: rat CRF, homologous hentetracontapeptide of U.S. Pat. No. 4,489,163; same formula as human CRF (SEEPPISLDLTFHLLREVLEMARAEQLAQQAHSNRKLMEII; ends and bridges not checked; UniProt P01143 145-185, looked up) | – | – | Stimulation of ACTH and β-endorphin secretion / β-END-LI (background) [3]: stimulate ACTH and β-endorphin-like activities; Lowering of blood pressure (background) [4]: substantially lower blood pressure
